US11572590B2, “Methods for evaluating tumor cell spheroids using 3D microfluidic cell culture device” (Dana-Farber Cancer Institute, Inc., priority 2017, dated 2023)
Where two headings read alike, the source gives them in different places.

How the values were obtained:
Test in all cases: SelectScreen Kinase Profiling, single point inhibition and IC50 for off-target kinases
Format in all cases: biochemical
off-target kinases [1] = target: T1, off-target kinases (Homo sapiens, UniProt O00329); conditions: PIK3CD/PIK3R1 (p110 delta/p85 alpha), Adapta, ATP Km app
T1 sequence (O00329 1-1044): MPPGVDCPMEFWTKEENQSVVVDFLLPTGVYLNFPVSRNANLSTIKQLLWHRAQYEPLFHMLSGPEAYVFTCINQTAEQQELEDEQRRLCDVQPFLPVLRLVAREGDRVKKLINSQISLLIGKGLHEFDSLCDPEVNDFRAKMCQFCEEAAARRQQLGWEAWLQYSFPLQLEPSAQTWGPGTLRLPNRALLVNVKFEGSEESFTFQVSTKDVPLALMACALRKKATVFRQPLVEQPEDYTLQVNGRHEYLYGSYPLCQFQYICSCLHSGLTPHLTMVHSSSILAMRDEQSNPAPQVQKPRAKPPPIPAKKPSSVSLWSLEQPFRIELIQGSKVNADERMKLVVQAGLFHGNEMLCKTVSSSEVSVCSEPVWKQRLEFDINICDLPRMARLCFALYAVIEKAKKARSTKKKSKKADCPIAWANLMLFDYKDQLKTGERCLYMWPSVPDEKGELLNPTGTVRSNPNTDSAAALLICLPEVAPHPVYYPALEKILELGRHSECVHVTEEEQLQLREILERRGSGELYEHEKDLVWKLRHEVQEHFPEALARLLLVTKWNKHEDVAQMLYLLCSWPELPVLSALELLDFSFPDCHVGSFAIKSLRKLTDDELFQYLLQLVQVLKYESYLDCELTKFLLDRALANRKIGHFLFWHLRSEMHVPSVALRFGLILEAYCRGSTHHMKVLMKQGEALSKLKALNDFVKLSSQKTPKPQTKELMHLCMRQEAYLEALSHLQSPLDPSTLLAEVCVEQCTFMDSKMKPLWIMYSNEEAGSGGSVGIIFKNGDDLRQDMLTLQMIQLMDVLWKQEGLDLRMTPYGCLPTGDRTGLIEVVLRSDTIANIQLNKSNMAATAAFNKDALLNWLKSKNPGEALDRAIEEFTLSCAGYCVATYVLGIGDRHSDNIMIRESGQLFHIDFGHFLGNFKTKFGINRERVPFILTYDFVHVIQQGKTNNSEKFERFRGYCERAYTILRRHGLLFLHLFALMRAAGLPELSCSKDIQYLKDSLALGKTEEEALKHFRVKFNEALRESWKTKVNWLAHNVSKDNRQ
Protocol: (§1) Biochemical single point inhibition and IC50 concentrations for TBK1, IKKε (IKBKE), and off-target kinases were determined at ThermoFisher Scientific using SelectScreen Kinase Profiling Services (Madison, Wis., USA) (Tables S4A and S4B-1-7). To determine cellular potency, the human colorectal cancer carcinoma cell line HCT116 (ATCC, Manassas, Va.) was maintained in T175 flasks in complete RPMI medium; RPMI 1640 supplemented with 10% FBS, 1× Penicillin-Streptomycin solution and 1×MEM (non-essential amino acids). HCT116 cells were grown to 90-95% confluency in T175 flasks containing complete RPMI medium and transfected in bulk using Lipofectamine 2000 (Invitrogen, Carlsbad, Calif.) with 70 μg of ISG54-luciferase reporter plasmid (Elim Biopharmaceuticals Inc., Hayward, Calif.). The reporter plasmid contains a luciferase gene expression cassette under the transcriptional regulation of the promoter of the human interferon stimulated gene 54 (ISG54). Transfection of the cells was allowed to take place for 6 hours, after which the cells were harvested by treatment with 0.25% trypsin EDTA (Corning Inc., Corning, N.Y.). Trypsinized cells were added to 384-well poly-d-lysine treated black clear bottom tissue culture assay plates (Greiner Bio-One GmbH, Kremsmünster, Austria) at a density of 20,000 cells/well in 80 μL of complete RPMI medium and incubated overnight. After 16-18 hours post-transfection, the assay plates were washed with PBS (Corning Inc., Corning, N.Y.), followed by addition of 80 μL/well of serum-free RPMI 1640 medium containing 1× Penicillin-Streptomycin solution, 1×MEM and 350 nL of DMSO or titrations of Compound 1. Compound 1 titrations were generated by 1.5-fold dilution steps in two overlapping serial dilution series to generate a 40-point compound dose range. After incubation at 37° C. for 1 hour, the cells were stimulated with Poly(I:C) (InvivoGen, San Diego, Calif.) at a final concentration of 15 μg/mL in Optimem media (Life Technologies, Rockville, Md.). The assay plates were incubated for 5 hours at 37° C., followed by addition of One-Glo luciferase firefly reagent (Promega, Madison, Wis.) at 1:1 volume/well and luminescence was measured in an EnVision Multilabel Plate Reader (PerkinElmer, Santa Clara, Calif.). The EC50 values were calculated from the fit of the dose-response curves to a four-parameter equation. All EC50 values represent geometric mean values of a minimum of four determinations.

off-target kinases [2] = target: off-target kinases (Homo sapiens, UniProt P22612); conditions: PRKACG (PRKAC gamma), LanthaScreen Binding
Protocol: as §1

off-target kinases [3] = target: off-target kinases (Homo sapiens, UniProt Q02750); conditions: MAP2K1 (MEK1)
Protocol: as §1

off-target kinases [4] = target: T2, off-target kinases (Homo sapiens, UniProt Q9UBE8); conditions: NLK, LanthaScreen Binding
T2 sequence (Q9UBE8 1-527): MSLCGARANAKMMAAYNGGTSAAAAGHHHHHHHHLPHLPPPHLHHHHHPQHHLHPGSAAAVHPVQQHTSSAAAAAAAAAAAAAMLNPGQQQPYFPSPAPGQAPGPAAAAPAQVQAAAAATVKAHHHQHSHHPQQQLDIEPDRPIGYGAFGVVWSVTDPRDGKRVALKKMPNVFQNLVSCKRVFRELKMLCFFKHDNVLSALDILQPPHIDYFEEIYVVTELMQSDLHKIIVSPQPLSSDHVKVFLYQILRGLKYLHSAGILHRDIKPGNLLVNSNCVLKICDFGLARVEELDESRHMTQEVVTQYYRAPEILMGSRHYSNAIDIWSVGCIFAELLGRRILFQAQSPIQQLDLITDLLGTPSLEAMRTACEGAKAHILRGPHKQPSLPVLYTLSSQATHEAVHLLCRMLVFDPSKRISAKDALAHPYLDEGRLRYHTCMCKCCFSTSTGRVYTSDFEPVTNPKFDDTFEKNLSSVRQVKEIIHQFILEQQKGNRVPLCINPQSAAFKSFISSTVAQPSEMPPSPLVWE
Protocol: as §1

Sequence of off-target kinases (Homo sapiens, UniProt Q02750) (Q02750 whole entry): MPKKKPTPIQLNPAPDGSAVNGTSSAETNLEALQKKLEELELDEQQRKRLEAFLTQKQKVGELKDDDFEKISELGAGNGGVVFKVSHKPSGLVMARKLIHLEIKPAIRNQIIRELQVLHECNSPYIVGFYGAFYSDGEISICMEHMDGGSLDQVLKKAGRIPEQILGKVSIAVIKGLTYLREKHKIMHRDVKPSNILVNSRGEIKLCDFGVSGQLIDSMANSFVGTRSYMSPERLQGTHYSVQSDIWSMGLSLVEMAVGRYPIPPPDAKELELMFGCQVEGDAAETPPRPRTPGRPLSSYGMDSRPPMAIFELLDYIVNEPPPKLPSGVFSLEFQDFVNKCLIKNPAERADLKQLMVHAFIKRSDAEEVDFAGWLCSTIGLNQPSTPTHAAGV
Sequence of off-target kinases (Homo sapiens, UniProt P22612) (P22612 whole entry): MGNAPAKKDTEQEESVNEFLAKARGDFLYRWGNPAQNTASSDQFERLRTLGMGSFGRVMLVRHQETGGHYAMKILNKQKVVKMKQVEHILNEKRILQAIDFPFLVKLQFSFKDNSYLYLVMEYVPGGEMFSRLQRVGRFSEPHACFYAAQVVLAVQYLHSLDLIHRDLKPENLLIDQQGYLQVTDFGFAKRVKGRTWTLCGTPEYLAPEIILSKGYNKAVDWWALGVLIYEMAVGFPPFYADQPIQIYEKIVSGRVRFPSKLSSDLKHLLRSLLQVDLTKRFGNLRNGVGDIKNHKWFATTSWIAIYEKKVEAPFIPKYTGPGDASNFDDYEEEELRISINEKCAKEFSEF

Compound: N#Cc1cc(-c2ncnc(Nc3ccc(N4CCN(C5COC5)CC4)cc3)n2)ccc1OC1CCOCC1 [Compound 1, 5-(4-((4-(4-(oxetan-3-yl)piperazin-1-yl)phenyl)amino)-1,3,5-triazin-2-yl)-2-((tetrahydro-2H-pyran-4-yl)oxy)benzonitrile]
- inhibition (off-target kinases [1]; read-out: % Inhibition 1): 22%
- inhibition (off-target kinases [1]; read-out: % Inhibition 2): 9%
- inhibition (off-target kinases [1]; read-out: % Inhibition Avg): 16%
- inhibition (off-target kinases [2]; read-out: % Inhibition 1): 28%
- inhibition (off-target kinases [2]; read-out: % Inhibition 2): 19%
- inhibition (off-target kinases [2]; read-out: % Inhibition Avg): 24%
- inhibition (off-target kinases [3]; LanthaScreen Binding, read-out: % Inhibition 1): 6%
- inhibition (off-target kinases [3]; LanthaScreen Binding, read-out: % Inhibition 2): 5%
- inhibition (off-target kinases [3]; LanthaScreen Binding, read-out: % Inhibition Avg): 5%
- inhibition (off-target kinases [3]; ZLYTE, ATP 100, read-out: % Inhibition 1): 7%
- inhibition (off-target kinases [3]; ZLYTE, ATP 100, read-out: % Inhibition 2): 3%
- inhibition (off-target kinases [3]; ZLYTE, ATP 100, read-out: % Inhibition Avg): 5%
- inhibition (off-target kinases [4]; read-out: % Inhibition 1): 26%
- inhibition (off-target kinases [4]; read-out: % Inhibition 2): 29%
- inhibition (off-target kinases [4]; read-out: % Inhibition Avg): 28%
